The values below are quoted from earlier work in patent publication US20070203026A1, “Methods for controlling bermudagrass, bermudagrass hybrids and other weedy monocot and dicot species” (TurfEcosystems, LLC, priority 2006, published 2007).

One data set has as its system crested wheatgrass. The conditions noted are these: saturated soil paste extract data.
The next data set deals with tall fescue. Particulars: saturated soil paste extract data.
Another data set has as its system perennial ryegrass. The conditions noted are these: saturated soil paste extract data.
The next data set deals with bermudagrass. Particulars: saturated soil paste extract data.
Data set [1] relates to fairway crested wheatgrass. Particulars: saturated soil paste extract data.
A further data set relates to seashore paspalum. Particulars: ocean level chlorides.

Consider `Cl` [chloride], for which the “maximum soil chloride concentration threshold” value is listed as “about 1050 ppm” in the data set with crested wheatgrass; “about 1400 ppm” in the data set with tall fescue; “about 1025 ppm” with perennial ryegrass; “about 2450 ppm” in the data set with bermudagrass; “about 2625 ppm” in data set [1]. Further, the “chlorides withstood (salinity tolerance)” value in the data set with seashore paspalum was ~19,000 ppm.
